# Reference: ChEMBL document CHEMBL3351515, “α-Hexylcinnamaldehyde inhibits the genotoxicity of environmental pollutants in the bacterial reverse mutation assay” (2014)
# Columns and labels:
# Escherichia coli [1] = assay: Antimutagenic activity against 2-aminoanthracene-induced revertant colonies in Escherichia coli WP2uvrA assessed as number of revertant colonies measured cotreatment at 180 uM (reference value: 366 +/- 10.3) in presence of mammalian S9 fraction; type: functional
# Salmonella typhimurium [2] = assay: Antimutagenic activity against 2-aminoanthracene-induced revertant colonies in Salmonella typhimurium TA100 assessed as number of revertant colonies measured pretreatment at 9 uM (reference value: 481.3 +/- 5.3) in presence of mammalian S9 fraction; type: functional, Salmonella enterica subsp. enterica serovar Typhimurium
# Salmonella typhimurium [3] = assay: Antimutagenic activity against sodium azide-induced revertant colonies in Salmonella typhimurium TA100 assessed as number of revertant colonies measured post-treatment at 180 uM (reference value: 1909 +/- 29.7) in absence of mammalian S9 fraction; type: functional, Salmonella enterica subsp. enterica serovar Typhimurium
# Salmonella typhimurium [4] = assay: Antimutagenic activity against 2-aminoanthracene-induced revertant colonies in Salmonella typhimurium TA100 assessed as number of revertant colonies measured post-treatment at 900 uM (reference value: 642.7 +/- 2.7) in presence of mammalian S9 fraction; type: functional, Salmonella enterica subsp. enterica serovar Typhimurium
# Salmonella typhimurium [5] = assay: Antimutagenic activity against sodium azide-induced revertant colonies in Salmonella typhimurium TA100 assessed as number of revertant colonies measured post-treatment at 900 uM (reference value: 1909 +/- 29.7) in absence of mammalian S9 fraction; type: functional, Salmonella enterica subsp. enterica serovar Typhimurium
# Salmonella typhimurium [6] = assay: Antimutagenic activity against 1,8-dinitropyrene-induced revertant colonies in Salmonella typhimurium TA98 assessed as inhibition of mutagenicity measured at 9 to 18 uM; type: functional, Salmonella enterica subsp. enterica serovar Typhimurium
# Salmonella typhimurium [7] = assay: Antimutagenic activity against sodium azide-induced revertant colonies in Salmonella typhimurium TA100 assessed as number of revertant colonies measured post-treatment at 90 uM (reference value: 1909 +/- 29.7) in absence of mammalian S9 fraction; type: functional, Salmonella enterica subsp. enterica serovar Typhimurium
# Salmonella typhimurium [8] = assay: Antimutagenic activity against sodium azide-induced revertant colonies in Salmonella typhimurium TA100 assessed as number of revertant colonies measured pretreatment at 90 uM (reference value: 1968 +/- 46.9) in absence of mammalian S9 fraction; type: functional, Salmonella enterica subsp. enterica serovar Typhimurium
# Salmonella typhimurium [9] = assay: Antimutagenic activity against 2-aminoanthracene-induced revertant colonies in Salmonella typhimurium TA100 assessed as number of revertant colonies measured post-treatment at 18 uM (reference value: 642.7 +/- 2.7) in presence of mammalian S9 fraction; type: functional, Salmonella enterica subsp. enterica serovar Typhimurium
# Salmonella typhimurium [10] = assay: Antimutagenic activity against sodium azide-induced revertant colonies in Salmonella typhimurium TA100 assessed as number of revertant colonies measured cotreatment at 18 uM (reference value: 1588 +/- 55.6) in absence of mammalian S9 fraction; type: functional, Salmonella enterica subsp. enterica serovar Typhimurium
# Salmonella typhimurium [11] = assay: Antimutagenic activity against 1,8-dinitropyrene-induced revertant colonies in Salmonella typhimurium TA98 assessed as inhibition of mutagenicity measured at 900 uM; type: functional, Salmonella enterica subsp. enterica serovar Typhimurium; settings: Salmonella enterica
# Escherichia coli [12] = assay: Antimutagenic activity against methyl methansulfonate-induced revertant colonies in Escherichia coli WP2uvrA assessed as number of revertant colonies measured pretreatment at 90 uM (reference value: 466.7 +/- 40.4) in absence of mammalian S9 fraction; type: functional
# Salmonella typhimurium [13] = assay: Antimutagenic activity against 1,8-dinitropyrene-induced revertant colonies in Salmonella typhimurium TA98 assessed as inhibition of mutagenicity measured at 90 to 180 uM; type: functional, Salmonella enterica subsp. enterica serovar Typhimurium
# Salmonella typhimurium [14] = assay: Antimutagenic activity against 2-aminoanthracene-induced revertant colonies in Salmonella typhimurium TA100 assessed as number of revertant colonies measured post-treatment at 90 uM (reference value: 642.7 +/- 2.7) in presence of mammalian S9 fraction; type: functional, Salmonella enterica subsp. enterica serovar Typhimurium
# Salmonella typhimurium [15] = assay: Antimutagenic activity against 2-aminoanthracene-induced revertant colonies in Salmonella typhimurium TA100 assessed as number of revertant colonies measured post-treatment at 9 uM (reference value: 642.7 +/- 2.7) in presence of mammalian S9 fraction; type: functional, Salmonella enterica subsp. enterica serovar Typhimurium
# Escherichia coli [16] = assay: Antimutagenic activity against 2-aminoanthracene-induced revertant colonies in Escherichia coli WP2uvrA assessed as number of revertant colonies measured cotreatment at 90 uM (reference value: 366 +/- 10.3) in presence of mammalian S9 fraction; type: functional
# Salmonella typhimurium [17] = assay: Antimutagenic activity against 2-aminoanthracene-induced revertant colonies in Salmonella typhimurium TA100 assessed as number of revertant colonies measured cotreatment at 18 uM (reference value: 457.9 +/- 16.74) in presence of mammalian S9 fraction; type: functional, Salmonella enterica subsp. enterica serovar Typhimurium
# Escherichia coli [18] = assay: Antimutagenic activity against methyl methansulfonate-induced revertant colonies in Escherichia coli WP2uvrA assessed as number of revertant colonies measured cotreatment at 180 uM (reference value: 485.3 +/- 17.5) in absence of mammalian S9 fraction; type: functional
# Salmonella typhimurium [19] = assay: Antimutagenic activity against 2-nitrofluorene-induced revertant colonies in Salmonella typhimurium TA98 assessed as inhibition of mutagenicity measured at 900 uM; type: functional, Salmonella enterica subsp. enterica serovar Typhimurium; settings: Salmonella enterica
# Escherichia coli [20] = assay: Antimutagenic activity against 2-aminoanthracene-induced revertant colonies in Escherichia coli WP2uvrA assessed as number of revertant colonies measured post-treatment at 9 uM (reference value: 308 +/- 4) in presence of mammalian S9 fraction; type: functional
# Escherichia coli [21] = assay: Antimutagenic activity against 2-aminoanthracene-induced revertant colonies in Escherichia coli WP2uvrA assessed as number of revertant colonies measured post-treatment at 90 uM (reference value: 308 +/- 4) in presence of mammalian S9 fraction; type: functional
# Salmonella typhimurium [22] = assay: Antimutagenic activity against sodium azide-induced revertant colonies in Salmonella typhimurium TA100 assessed as number of revertant colonies measured cotreatment at 9 uM (reference value: 1588 +/- 55.6) in absence of mammalian S9 fraction; type: functional, Salmonella enterica subsp. enterica serovar Typhimurium
# Escherichia coli [23] = assay: Antimutagenic activity against 2-aminoanthracene-induced revertant colonies in Escherichia coli WP2uvrA assessed as number of revertant colonies measured pretreatment at 9 uM (reference value: 178.7 +/- 11.8) in presence of mammalian S9 fraction; type: functional
# Salmonella typhimurium [24] = assay: Antimutagenic activity against 1-nitropyrene-induced revertant colonies in Salmonella typhimurium TA98 1,8 DNP assessed as inhibition of mutagenicity measured at 9 to 18 uM; type: functional, Salmonella enterica subsp. enterica serovar Typhimurium
# Salmonella typhimurium [25] = assay: Antimutagenic activity against 2-aminoanthracene-induced revertant colonies in Salmonella typhimurium TA100 assessed as number of revertant colonies measured cotreatment at 90 uM (reference value: 457.9 +/- 16.74) in presence of mammalian S9 fraction; type: functional, Salmonella enterica subsp. enterica serovar Typhimurium
# Salmonella typhimurium [26] = assay: Antimutagenic activity against sodium azide-induced revertant colonies in Salmonella typhimurium TA100 assessed as number of revertant colonies measured pretreatment at 180 uM (reference value: 1968 +/- 46.9) in absence of mammalian S9 fraction; type: functional, Salmonella enterica subsp. enterica serovar Typhimurium
# Salmonella typhimurium [27] = assay: Antimutagenic activity against 1-nitropyrene-induced revertant colonies in Salmonella typhimurium TA98NR assessed as inhibition of mutagenicity measured at 900 uM; type: functional, Salmonella enterica subsp. enterica serovar Typhimurium; settings: Salmonella enterica
# Escherichia coli [28] = assay: Antimutagenic activity against 2-aminoanthracene-induced revertant colonies in Escherichia coli WP2uvrA assessed as number of revertant colonies measured cotreatment at 9 uM (reference value: 366 +/- 10.3) in presence of mammalian S9 fraction; type: functional
# Salmonella typhimurium [29] = assay: Antimutagenic activity against 1-nitropyrene-induced revertant colonies in Salmonella typhimurium TA98 assessed as inhibition of mutagenicity measured at 9 to 18 uM; type: functional, Salmonella enterica subsp. enterica serovar Typhimurium
# Escherichia coli [30] = assay: Antimutagenic activity against 2-aminoanthracene-induced revertant colonies in Escherichia coli WP2uvrA assessed as number of revertant colonies measured cotreatment at 18 uM (reference value: 366 +/- 10.3) in presence of mammalian S9 fraction; type: functional
compound,measurement,setting,value
CCCCCC/C(C=O)=C\c1ccccc1,Activity,Escherichia coli [1],318.7
same,Activity,Salmonella typhimurium [2],465.3
same,Activity,Salmonella typhimurium [3],1771
same,Activity,Salmonella typhimurium [4],481.3
same,Activity,Salmonella typhimurium [5],1671
same,inhibition (INH),Salmonella typhimurium [6],<25%
same,Activity,Salmonella typhimurium [7],1803
same,Activity,Salmonella typhimurium [8],1801
same,Activity,Salmonella typhimurium [9],530.7
same,Activity,Salmonella typhimurium [10],1501
same,inhibition at 900 µM,Salmonella typhimurium [11],> 40%
same,Activity,Escherichia coli [12],436
same,inhibition (INH),Salmonella typhimurium [13],25%
same,Activity,Salmonella typhimurium [14],530
same,Activity,Salmonella typhimurium [15],637.3
same,Activity,Escherichia coli [16],334.3
same,Activity,Salmonella typhimurium [17],446
same,Activity,Escherichia coli [18],448
same,inhibition at 900 µM,Salmonella typhimurium [19],> 40%
same,Activity,Escherichia coli [20],294.7
same,Activity,Escherichia coli [21],308.7
same,Activity,Salmonella typhimurium [22],1519
same,Activity,Escherichia coli [23],170.7
same,inhibition (INH),Salmonella typhimurium [24],<25%
same,Activity,Salmonella typhimurium [25],408.5
same,Activity,Salmonella typhimurium [26],1797
same,inhibition at 900 µM,Salmonella typhimurium [27],> 40%
same,Activity,Escherichia coli [28],336.8
same,inhibition (INH),Salmonella typhimurium [29],<25%
same,Activity,Escherichia coli [30],330.7
